“Also recorded” adds a separate entry of the source. Like-named read-outs stand apart in the source and are kept apart here. One block for each molecule: values may come before it.
What was measured:
N-mSMase ε = assay: N-mSMase activity assay: influence of cations, reducing agents and surfactants on enzyme activity; assay type: biochemical, bovine; settings: for inhibition of activity at 10 mM: glutathione concentration of 10 mM; for influence of agents similar to glutathione on N-mSMase ε activity: 1, 3, 5 or 10 mM; for influence of reducing agents on N-mSMase ε activity: 0.5-10 mM, relative to control without reducing agent
Procedure: (§1) After being dried with a nitrogen stream, [N-methyl-^14 C]sphingomyelin (choline residue labeled with ^14C) was suspended in ethanol. 10 µl of a sample was mixed with 100 µl of a reaction solution (10 mM MgSO4, 50 µM [N-methyl-^14 C]sphingomyelin (c.a. 60,000 cpm), 2 mM sodium deoxycholate, 100 mM Tris-HCl (pH 7.0)) and incubated at 37 °C for 30 min. Addition of 320 µl of a mixture of chloroform/methanol (1:1 volume ratio) and 30 µl of 2N hydrochloride stopped the reaction. After vortexing and centrifuging the resulting mixture at 10,000xg, 200 µl of the aqueous layer was mixed with 2.5 ml of a scintillation cocktail, such as that manufactured by Packard Instrument Co., U.S.A., identified as "Insta gel-XF", followed by measuring the radioactivity with the aid of a Packard Tricarb liquid β-scintillation counter.
(§2) Separately, the same Lineweaver-Burk analysis was carried out, but in the presence of 0.4, 1.0 and 2.0 mM sodium deoxycholate.
In order to examine the dependency of N-mSMase ε activity on Mg^2+, Fraction B obtained in Step 6 of Example 1 was desalted by being applied to a PD-10 column (Sephadex G-25, Pharmacia Biotechnology Co., Sweden). For use, the column was equilibrated twice with distilled water, in advance. The desalted protein fraction (corresponding to protein 10 ng) was measured for N-mSMase ε activity in the presence of 1, 5, 10 and 25 mM of MgCl2 in the manner described in Experimental Example 1.
An examination was made of the influence of other cations, such as Ca^2+, Fe^3+, Fe^2+, Zn^2+, Cu^2+ and […] on the activity of N-mSMase ε. To a solution containing the desalted protein fraction (corresponding to protein 10 ng) obtained in C and 5 mM MgCl2, CaCl2, FeCl3, FeCl2, ZnCl2 or CuCl2 was added to yield a final concentration of 0.01, 0.02, 0.05, 0.1, 0.25 or 0.5 mM, followed by the measurement of N-mSMase ε activity in accordance with the procedure of Experimental Example 1.
After the addition of 10 µl of [N-methyl-^14C]sphingomyelin, the N-mSMase activity was measured according to the procedure of Experimental Example 1. For comparison, a Tris-HCl buffer containing no reducing agents was used as a control. The N-mSMase ε activity influenced by the reducing agents was expressed as a percentage relative to the control.
After being treated with 1, 3, 5 or 10 mM of GSSG, cystein, cystein-glycine or γ-glutaric acid-cystein, the activity of N-mSMase ε was measured in the same manner.
Sodium deoxycholate and Triton X-100 were selected as surfactants to be tested. The protein fraction obtained in C (corresponding to 10 ng of protein) was measured for N-mSMase ε activity in reaction solutions containing 0.5, 1, 2 and 5 mM of sodium deoxycholate, respectively, in accordance with the procedure of Experimental Example 1. In the case of Triton X-100, it was prepared at concentrations of 0.05, 0.01, 0.5 and 0.1 %.

[1] = test system: N-mSMase ε, membrane-associated, Mg^2+-dependent, neutral pH optimum sphingomyelinase (60 kDa) from bovine brain; assay: Lineweaver-Burk kinetic analysis (N-mSMase activity assay); assay type: biochemical
Procedure: as §1
The N-mSMase ε prepared in Step 6 of Example 1 was subjected to Lineweaver-Burk analysis. In this regard, enzyme N-mSMase ε was used at amounts of 10 ng or less with the substrate sphingomyelin varying, in concentration, from 6.25 to 100 µM.
as §2

[2] = test system: partially purified N-mSMase; settings: partially purified rat brain N-mSMase (Liu et al.); cited from earlier work
[3] = cation chloride added at 0.01-0.5 mM in the presence of 5 mM MgCl2, read-out: IC50 (inhibition of enzyme activity, hydrolysis of sphingomyelin)

Molecule: N[C@@H](CCC(=O)N[C@@H](CS)C(=O)NCC(=O)O)C(=O)O [glutathione]
- IC50 (N-mSMase ε; glutathione 0.5-10 mM, preincubation 37 °C 10 min, read-out: IC50 (inhibition of sphingomyelinase activity)): 8000 µM
- inhibition of activity at 10 mM (N-mSMase ε): completely inhibited
- inhibition of activity at 10 mM (N-mSMase ε; listed as Glutathione): fully inhibited
- change of activity with concentration up to 3 mM (N-mSMase ε; glutathione up to 3 mM): increases

Molecule: sodium deoxycholate
- effect on Km value of N-mSMase ε (N-mSMase ε; Lineweaver-Burk analysis in the presence of 0.4, 1.0 and 2.0 mM sodium deoxycholate): could not change

Molecule: [Cl][Cu][Cl] [Cu^2+, CuCl2]
- IC50 (N-mSMase ε; [3]): 28 µM

Molecule: N[C@@H](CCC(=O)N[C@@H](CS)C(=O)O)C(=O)O [γ-glutaric acid-cystein]
- influence of agents similar to glutathione on N-mSMase ε activity (N-mSMase ε): inhibited; also recorded: reduction in the activity

Molecule: phosphatidylserine
- effect on activity of partially purified N-mSMase [2]: promoted

Molecule: OCCS [2-mercaptoethanol]
- influence of reducing agents on N-mSMase ε activity (N-mSMase ε): not inhibited; also recorded: neither dithiothreitol nor 2-mercaptoethanol has any influence

Molecule: oxidized glutathione [GSSG]
- influence of agents similar to glutathione on N-mSMase ε activity (N-mSMase ε): inhibited; also recorded: reduction in the activity

Molecule: N[C@@H](CS)C(=O)O [cystein]
- influence of agents similar to glutathione on N-mSMase ε activity (N-mSMase ε): inhibited; also recorded: reduction in the activity

Molecule: [Cl-].[Cl-].[Zn+2] [Zn^2+, ZnCl2]
- IC50 (N-mSMase ε; [3]): 32 µM

More lines, main results first:

- dependency of N-mSMase ε activity on Mg^2+ (N-mSMase ε; 1, 5, 10 and 25 mM MgCl2, desalted fraction): Mg^2+-concentration dependent
Molecule: [Cl-].[Cl-].[Mg+2] [Mg^2+, MgCl2]

- Km ([1]; substrate sphingomyelin 6.25 to 100 µM, enzyme 10 ng or less, absence of surfactants): 47 µM
- Km value in the presence of sodium deoxycholate ([1]; substrate sphingomyelin, 0.4, 1.0 and 2.0 mM sodium deoxycholate): could not change
Molecule: sphingomyelin

- influence on the activity of N-mSMase ε (N-mSMase ε; concentration of 0.5 mM or less, 5 mM MgCl2): no influence
Molecule: [Ca+2].[Cl-].[Cl-] [Ca^2+, CaCl2]

- influence of reducing agents on N-mSMase ε activity (N-mSMase ε): not inhibited
Molecule: O[C@H](CS)[C@H](O)CS (racemic) [DTT, dithiothreitol]
- influence of reducing agents on N-mSMase ε activity (N-mSMase ε; listed as dithiothreitol): neither dithiothreitol nor 2-mercaptoethanol has any influence
- effect on activity of partially purified N-mSMase [2]: promoted

From EP1258527A1, “Membrane-associated shingomyelinase derived from bovine brain, isolation method therfor and anti-sphingomyelinase monocional antibody” (SK Corporation, priority 2001, dated 2002)
